The results in this text go back to patent US6414147B1, “2-amino-9-alkylpurines: GABA brain receptor ligands” (Neurogen Corporation, priority 1998, dated 2002).

As usually defined, the melting point is the temperature of the solid-liquid transition. On to `CCCCn1cnc2c(OCC)nc(Nc3ccc(OC(C)C)cc3F)nc21.CS(=O)(=O)O` [compound 54, 2-[(2-Fluoro-4-isopropoxyphenyl)amino]-6-ethoxy-9-butyl-9H-purine methane sulfonate], for which the melting point worked out at 138 °C.
Turning to `CCCCn1cnc2c(OC)nc(Nc3ccc(OC)nc3)nc21` [compound 55, 2-[(2-Methoxypyrid-5-yl)amino]-6-methoxy-9-butyl-9H-purine], the melting point is 171 to 172 °C.
In the case of `CCCCn1cnc2c(OCC)nc(Nc3ccc(OC)nc3)nc21` [compound 56, 2-[(2-Methoxypyrid-5-yl)amino]-6-ethoxy-9-butyl-9H-purine] it was 170 to 172 °C; in that of `CCCCn1cnc2c(OCCOC)nc(Nc3ccc(OC)nc3)nc21` [compound 57, 2-[(2-Methoxypyrid-5-yl)amino]-6-(2-methoxyethoxy)-9-butyl-9H-purine], 138 to 140 °C.
In the case of `CCCCn1cnc2c(OCCF)nc(Nc3ccc(OC)nc3)nc21` [compound 58, 2-[(2-Methoxypyrid-5-yl)amino]-6-(2-fluoroethoxy)-9-butyl-9H-purine] it was 163 to 164 °C.
As to `CCCCn1cnc2c(OCC(F)F)nc(Nc3ccc(OC)nc3)nc21` [compound 59, 2-[(2-Methoxypyrid-5-yl)amino]-6-(2,2-difluoroethoxy)-9-butyl-9H-purine], the melting point fell in the range of 165 to 167 °C.
In the case of `CCCCn1cnc2c(OCC(C)C)nc(Nc3ccc(OC)nc3)nc21` [compound 60, 2-[(2-Methoxypyrid-5-yl)amino]-6-(2-methylprop-1-oxy)-9-butyl-9H-purine] it was 88 to 90 °C; in that of `C=CCOc1nc(Nc2ccc(OC)nc2)nc2c1ncn2CCCC` [compound 61, 2-[(2-Methoxypyrid-5-yl)amino]-6-(2-propen-1-oxy)-9-butyl-9H-purine], 174 to 176 °C.
To `CCCCn1cnc2c(OCC3CCCO3)nc(Nc3ccc(OC)nc3)nc21` (centres unmarked) [compound 62, 2-[(2-Methoxypyrid-5-yl)amino]-6-tetrahydrofurfuryloxy-9-butyl-9H-purine] belongs 147 to 149 °C; to `CCCCn1cnc2c(OCc3ccccn3)nc(Nc3ccc(OC)nc3)nc21` [compound 63, 2-[(2-Methoxypyrid-5-yl)amino]-6-(pyrid-2-ylmethoxy)-9-butyl-9H-purine], 150 to 153 °C.
To `CCCCn1cnc2c(Oc3ccccc3)nc(Nc3ccc(OC)nc3)nc21` [compound 64, 2-[(2-Methoxypyrid-5-yl)amino]-6-phenoxy-9-butyl-9H-purine] belongs 146 to 148 °C.
As for `CCCn1cnc2c(OCC(C)C)nc(Nc3ccc(OC)nc3)nc21` [compound 65, 2-[(2-Methoxypyrid-5-yl)amino]-6-(2-methylprop-1-oxy)-9-propyl-9H-purine], the melting point was in the range of 113 to 115 °C.
In the case of `CCCn1cnc2c(Oc3ccccc3)nc(Nc3ccc(OC)nc3)nc21` [compound 66, 2-[(2-Methoxypyrid-5-yl)amino]-6-phenoxy-9-propyl-9H-purine] it was 188 to 190 °C; in that of `C=C(C)COc1nc(Nc2ccc(OC)nc2)nc2c1ncn2CCCC` [compound 67, 2-[(2-Methoxypyrid-5-yl)amino]-6-(2-methyl-2-propen-1-oxy)-9-butyl-9H-purine], 131 to 133 °C; in that of `CCCCn1cnc2c(OCC3CC3)nc(Nc3ccc(OC)nc3)nc21` [compound 68, 2-[(2-Methoxypyrid-5-yl)amino]-6-cyclopropylmethoxy-9-butyl-9H-purine], 148 to 150 °C.
To `C=CCSc1nc(Nc2ccc(OC)nc2)nc2c1ncn2CCCC` [compound 69, 2-[(2-Methoxypyrid-5-yl)amino]-6-allylthio-9-butyl-9H-purine] belongs 107 to 109 °C; to `CCCCn1cnc2c(OCC)nc(Nc3ccc(OCC)nc3)nc21` [compound 71, 2-[(2-Ethoxypyrid-5-yl)amino]-6-ethoxy-9-butyl-9H-purine], 167 to 169 °C; to `CCCCn1cnc2c(OCCOC)nc(Nc3ccc(OCC)nc3)nc21` [compound 72, 2-[(2-Ethoxypyrid-5-yl)amino]-6-(2-methoxyethoxy)-9-butyl-9H-purine], 123 to 125 °C.
In the case of `C=CCOc1nc(Nc2ccc(OCC)nc2)nc2c1ncn2CCCC` [compound 73, 2-[(2-Ethoxypyrid-5-yl)amino]-6-(2-propen-1-oxy)-9-butyl-9H-purine] it was 158 to 160 °C; in that of `CCCCn1cnc2c(OCCF)nc(Nc3ccc(OCC)nc3)nc21` [compound 74, 2-[(2-Ethoxypyrid-5-yl)amino]-6-(2-fluoroethoxy)-9-butyl-9H-purine], 156 to 157 °C.
On to `C=C(C)COc1nc(Nc2ccc(OCC)nc2)nc2c1ncn2CCCC` [compound 75, 2-[(2-Ethoxypyrid-5-yl)amino]-6-(2-methyl-2-propen-1-oxy)-9-butyl-9H-purine], for which the melting point fell in the range of 108 to 110 °C.
To `CCCCn1cnc2c(OCc3cccs3)nc(Nc3ccc(OCC)nc3)nc21` [compound 76, 2-[(2-Ethoxypyrid-5-yl)amino]-6-(thien-2-ylmethoxy)-9-butyl-9H-purine] belongs 116 to 118 °C; to `C=C(C)COc1nc(Nc2ccc(OCC)nc2)nc2c1ncn2CCC` [compound 77, 2-[(2-Ethoxypyrid-5-yl)amino]-6-(2-methyl-2-propen-1-oxy)-9-propyl-9H-purine], 112 to 114 °C; to `C#CCOc1nc(Nc2ccc(OCC)nc2)nc2c1ncn2CCCC` [compound 78, 2-[(2-Ethoxypyrid-5-yl)amino]-6-(2-propyn-1-oxy)-9-butyl-9H-purine], 151 to 153 °C.
To `CCCCn1cnc2c(OCC(F)F)nc(Nc3ccc(OCC)nc3)nc21` [compound 80, 2-[(2-Ethoxypyrid-5-yl)amino]-6-(2,2-difluoroethoxy)-9-butyl-9H-purine] belongs 151 to 152 °C.
To `CCCCn1cnc2c(OCC(=O)OCC)nc(Nc3ccc(OCC)nc3)nc21` [compound 82, 2-[(2-Ethoxypyrid-5-yl)amino]-6-carboethoxymethoxy-9-butyl-9H-purine] belongs 77 to 80 °C; to `CCCCn1cnc2c(OCC(C)C)nc(Nc3ccc(OCC)nc3)nc21` [compound 83, 2-[(2-Ethoxypyrid-5-yl)amino]-6-(2-methylprop-1-oxy)-9-butyl-9H-purine], 96 to 98 °C.
In turn, `CCCCn1cnc2c(OCCO)nc(Nc3ccc(OCC)nc3)nc21` [compound 84, 2-[(2-Ethoxypyrid-5-yl)amino]-6-(2-hydroxyethoxy)-9-butyl-9H-purine] had a melting point of 166 to 168 °C.
Molecule `CCCCn1cnc2c(OCC)nc(Nc3cnc4ccccc4c3)nc21` [compound 86, 2-[(Quinolin-3-yl)amino]-6-ethoxy-9-butyl-9H-purine] gave a melting point of 186 to 188 °C.
To `CCCCn1cnc2c(OCCC)nc(Nc3cnc4ccccc4c3)nc21` [compound 87, 2-[(Quinolin-3-yl)amino]-6-propoxy-9-butyl-9H-purine] belongs 215 to 220 °C; to `CCCCn1cnc2c(OCCOC)nc(Nc3cnc4ccccc4c3)nc21` [compound 88, 2-[(Quinolin-3-yl)amino]-6-(2-methoxyethoxy)-9-butyl-9H-purine], 161 to 163 °C; to `CCCCn1cnc2c(OCC(C)C)nc(Nc3cnc4ccccc4c3)nc21` [compound 89, 2-[(Quinolin-3-yl)amino]-6-(2-methylprop-1-oxy)-9-butyl-9H-purine], 68 to 71 °C.
On to `C=C(C)COc1nc(Nc2cnc3ccccc3c2)nc2c1ncn2CCCC` [compound 91, 2-[(Quinolin-3-yl)amino]-6-(2-methyl-2-propen-1-oxy)-9-butyl-9H-purine], for which the melting point lay within 106 to 108 °C.
For the molecule `C=CCOc1nc(Nc2cnc3ccccc3c2)nc2c1ncn2CCCC` [compound 92, 2-[(Quinolin-3-yl)amino]-6-(2-propen-1-oxy)-9-butyl-9H-purine], the melting point was 188 to 192 °C.
To `CCCCn1cnc2c(OCCF)nc(Nc3cnc4ccccc4c3)nc21` [compound 93, 2-[(Quinolin-3-yl)amino]-6-(2-fluoroethoxy)-9-butyl-9H-purine] belongs 181 to 183 °C.
As for `CCCCn1cnc2c(OC)nc(Nc3ccc4c(c3)OCO4)nc21` [compound 95, 2-[(3,4-Methylenedioxyphenyl)amino]-6-methoxy-9-butyl-9H-purine], the melting point was 160 to 161 °C.
As for `CCCCn1cnc2c(OCC)nc(Nc3ccc4ncsc4c3)nc21` [compound 96, 2-[(Benzothiazol-6-yl)amino]-6-ethoxy-9-butyl-9H-purine], the melting point is 150 to 152 °C.
To `CCCCn1cnc2c(OCC)nc(NCc3ccc(OC)cc3)nc21` [compound 97, 2-[(4-Methoxybenzyl)amino]-6-ethoxy-9-butyl-9H-purine] belongs 129 to 130 °C.
